Test results: patent publication US7211566B2 (Universite De Sherbrooke, priority 2003, dated 2007)
Square brackets hold non-standard residues; d marks the D form. Peptide text beside a SMILES is read from it. Oic = O=C(O)[C@@H]1C[C@@H]2CCCC[C@@H]2N1; d2Nal = N[C@H](Cc1ccc2ccccc2c1)C(=O)O; αMeF = C[C@](N)(Cc1ccccc1)C(=O)O; Orn = NCCC[C@H](N)C(=O)O

Key:
[1] = biological target: T1, aminopeptidase M (AmM) (Homo sapiens, UniProt P15144); assay: In vitro metabolic stability against human plasma AmM; type: in vitro ADME; details: male, human plasma as source of aminopeptidase M, pH 7.5, peptide 200 μM, 60 min incubation, mean ± SEM of 3, read-out: Peptide metabolism (%) Human plasma AmM
T1 construct: incubated for 60 min with 50 μl of human plasma; from tissue; host or cells: human plasma from heparinized blood of healthy male volunteers
T1 sequence (P15144 whole entry): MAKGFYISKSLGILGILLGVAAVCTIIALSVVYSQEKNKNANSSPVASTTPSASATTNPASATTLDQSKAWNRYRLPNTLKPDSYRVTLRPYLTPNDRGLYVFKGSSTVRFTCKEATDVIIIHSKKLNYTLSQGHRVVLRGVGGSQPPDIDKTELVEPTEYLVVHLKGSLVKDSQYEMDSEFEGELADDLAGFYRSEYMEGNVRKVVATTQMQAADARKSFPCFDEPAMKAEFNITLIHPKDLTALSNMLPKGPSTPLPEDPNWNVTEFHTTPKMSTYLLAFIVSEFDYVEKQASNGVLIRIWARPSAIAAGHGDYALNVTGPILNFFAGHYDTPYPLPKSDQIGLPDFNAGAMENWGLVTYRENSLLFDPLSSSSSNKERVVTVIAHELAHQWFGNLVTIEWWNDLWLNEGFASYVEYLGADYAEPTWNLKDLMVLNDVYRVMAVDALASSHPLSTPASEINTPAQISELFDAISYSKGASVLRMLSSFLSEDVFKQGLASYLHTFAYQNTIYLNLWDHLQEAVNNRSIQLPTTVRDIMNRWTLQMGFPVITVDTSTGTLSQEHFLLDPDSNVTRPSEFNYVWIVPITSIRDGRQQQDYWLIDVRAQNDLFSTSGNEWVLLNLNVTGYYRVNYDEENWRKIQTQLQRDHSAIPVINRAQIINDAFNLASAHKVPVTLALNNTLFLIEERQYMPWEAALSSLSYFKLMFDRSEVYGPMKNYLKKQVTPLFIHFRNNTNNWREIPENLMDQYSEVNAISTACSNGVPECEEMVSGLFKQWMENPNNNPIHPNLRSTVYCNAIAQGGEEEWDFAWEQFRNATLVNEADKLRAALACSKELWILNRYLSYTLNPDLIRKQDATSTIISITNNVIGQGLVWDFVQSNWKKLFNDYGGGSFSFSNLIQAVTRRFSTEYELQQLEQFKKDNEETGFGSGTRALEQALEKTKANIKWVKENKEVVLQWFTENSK
Protocol: (§1) These assays were performed using three enzyme preparations: purified angiotensin converting enzyme (ACE; from rabbit lung), human plasma as a, source of aminopeptidase M (AmM) and human platelets as a source of aminopeptidase P (AmP).
Human plasma AmM was prepared as previously described (Gobeil et al., 1999, Hypertension, 33, 823–829). Blood (5 ml) was withdrawn from healthy normotensive male Caucasian volunteers and put into heparinized tube (200 U). Blood samples were centrifuged at 1500 rpm for 15 min in a refrigerated tabletop centrifuge. The peptide antagonists (200 μM) were placed in a PBS buffer (50 mM, pH 7.5, containing 300 mM NaCl) and incubated for 60 min with 50 μl of human plasma (total volume of the medium, 375 μl). Immersing samples into boiling water and then cooling them on ice stopped the hydrolysis reaction. Control experiments have shown that ≈70% of the kininase activity that is present in the human plasma is abolished by amastatin (1 μM) and that the incubation of Lys-[Leu^8]desArg^9BK with this enzymatic preparation led to the production of [Leu^8]desArg^9BK as detected by electrospray mass spectrometry.

[2] = biological target: T2, BKB1 receptor (Oryctolagus cuniculus, UniProt P48748); assay: Isolated rabbit aorta (rbA) organ bath, antagonist potency pA2; type: cell-based; details: rabbit aorta without endothelium; mean ± SEM of 4–7 experiments; read-out: Antagonist potencies (pA2) BKB1-R rbA (converted)
T2 construct: The rabbit aorta without endothelium (which contains only the BKB1 receptor); from tissue; host or cells: isolated rabbit aorta (rbA) without endothelium
T2 sequence (P48748 1-352): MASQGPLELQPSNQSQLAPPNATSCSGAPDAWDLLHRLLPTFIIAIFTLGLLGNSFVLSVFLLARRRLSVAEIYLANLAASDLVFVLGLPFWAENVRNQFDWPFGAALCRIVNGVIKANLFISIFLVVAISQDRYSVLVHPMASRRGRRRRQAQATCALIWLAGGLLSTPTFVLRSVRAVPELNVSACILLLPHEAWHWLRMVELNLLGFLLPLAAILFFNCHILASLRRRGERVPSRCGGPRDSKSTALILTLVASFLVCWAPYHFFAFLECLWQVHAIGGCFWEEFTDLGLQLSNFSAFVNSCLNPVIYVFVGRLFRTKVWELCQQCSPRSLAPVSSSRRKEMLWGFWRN
Protocol: (§2) Selected antagonists were tested for activities in three isolated organs: (1) the rabbit aorta (rbA), (2) the human umbilical vein (hUV) and (3) the rabbit jugular vein (rbJV).
(§3) All details regarding the procurements of human umbilical cords and rabbit vessels as well as, the procedures for preparing the isolated organs and the experimental protocols are described in these respective publications: rbA (Rioux et al. 1973, Can J Physiol Pharmacol 51, 114–121); hUV (Gobeil et al. 1996, Br J Pharmacol 118, 289–294), and rbJV (Gaudreau et al. 1981, Can J Physiol Pharmacol 59, 371–379).
The rabbit aorta without endothelium (which contains only the BKB1 receptor) was used to determine the antagonistic activities of each compound.
(§4) The rabbit jugular vein (a pure BKB2 receptor system) was used to exclude any action of the new compounds on the BKB2 receptor and thus establish their selectivity. All tissues were treated with captopril (1 μM) to prevent the degradation of the peptidic agonists.
(§5) Repeated applications of a single and double concentration of BK (on rbJV,) or of desArg^9BK (rbA and hUV) were made in the absence and in presence of the various peptides to evaluate their apparent affinities as antagonists, in terms of pA2 (-log10 of the molar concentration of antagonist that reduces the effect of a double concentration of agonist to that of a single one) (Schild 1947, Br J Pharmacol 2, 189–206).

[3] = biological target: T3, aminopeptidase P (AmP) (Homo sapiens, UniProt Q9NQW7); assay: In vitro metabolic stability against human platelets AmP; type: in vitro ADME; details: mean ± SEM of 3 experiments
T3 construct: from tissue; host or cells: human platelets, freeze-thawed and sonicated, 43 000 x g supernatant
T3 sequence (Q9NQW7 whole entry): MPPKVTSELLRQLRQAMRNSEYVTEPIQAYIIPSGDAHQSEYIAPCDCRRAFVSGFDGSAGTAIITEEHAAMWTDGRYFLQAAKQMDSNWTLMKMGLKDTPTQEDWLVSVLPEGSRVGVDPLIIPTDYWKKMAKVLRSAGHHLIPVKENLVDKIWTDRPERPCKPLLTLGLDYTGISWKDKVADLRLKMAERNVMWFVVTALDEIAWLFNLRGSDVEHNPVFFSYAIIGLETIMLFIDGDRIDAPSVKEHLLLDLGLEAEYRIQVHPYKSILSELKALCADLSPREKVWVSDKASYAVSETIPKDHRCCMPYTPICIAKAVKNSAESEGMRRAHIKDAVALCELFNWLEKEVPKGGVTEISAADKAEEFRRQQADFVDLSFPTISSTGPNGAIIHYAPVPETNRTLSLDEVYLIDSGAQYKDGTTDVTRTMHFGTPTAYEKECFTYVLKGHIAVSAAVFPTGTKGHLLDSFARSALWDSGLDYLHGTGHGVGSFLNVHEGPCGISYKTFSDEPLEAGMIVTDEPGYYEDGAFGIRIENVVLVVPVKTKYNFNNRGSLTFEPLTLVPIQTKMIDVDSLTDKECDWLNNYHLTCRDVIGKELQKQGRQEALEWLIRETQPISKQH
Protocol: as §1
Human platelet AmP was prepared as described by Maggiora et al. (1999, J Med Chem 42, 2394–2402). Human platelets (40 ml) were centrifuged at 250×g for 7 min at room temperature. The resulting supernatant was recentrifuged at 2790×g for 15 min at room temperature. Pellets were collected, resuspended in 40 ml of phosphate-buffered saline (PBS) containing 3.5% of sodium citrate, and then re-centrifuged at 2790×g for 15 min at room temperature. This washing step was repeated. Pellets were resuspended in 4 ml of PBS-sodium citrate, snap-frozen in liquid nitrogen, thawed at 37° C., sonicated briefly, and then centrifuged at 43 000×g for 2 h at 4° C. (Sorvall RC 5B, ss-34 rotor). The resulting supernatant was used for enzyme assays as described in Neugebauer et al. (Neugebauer et al. 2002, supra).

[4] = biological target: T4, BKB1 receptor (Homo sapiens, UniProt P46663); assay: Isolated human umbilical vein (hUV) organ bath, antagonist potency pA2; type: cell-based; design: the hUV that contains BKB1 and BKB2 receptors; from tissue; host or cells: isolated human umbilical vein (hUV); details: human umbilical vein treated with HOE 140; mean ± SEM of 4–7 experiments; read-out: Antagonist potencies (pA2) BKB1-R hUV (converted)
T4 sequence (P46663 1-353): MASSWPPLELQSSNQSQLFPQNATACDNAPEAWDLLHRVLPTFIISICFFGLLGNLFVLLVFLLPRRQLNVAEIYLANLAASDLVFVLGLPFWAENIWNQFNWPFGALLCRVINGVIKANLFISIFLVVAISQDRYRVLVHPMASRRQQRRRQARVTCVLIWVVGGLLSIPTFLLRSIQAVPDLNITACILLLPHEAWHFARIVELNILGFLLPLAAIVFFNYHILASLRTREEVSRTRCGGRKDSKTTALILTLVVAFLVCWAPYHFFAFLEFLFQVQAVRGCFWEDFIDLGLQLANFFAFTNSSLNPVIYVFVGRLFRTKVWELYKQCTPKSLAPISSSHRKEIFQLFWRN
Protocol: as §2, §3, §4, §5

CC[C@H](C)[C@H](NC(=O)[C@@H](Cc1ccc2ccccc2c1)NC(=O)[C@H](CO)NC(=O)[C@](C)(Cc1ccccc1)NC(=O)CNC(=O)[C@@H]1CCCN1C(=O)[C@@H]1C[C@@H]2CCCC[C@@H]2N1C(=O)[C@H](CCCNC(=N)N)NC(=O)[C@H](CCCN)NC(C)=O)C(=O)O [compound c, Ac-Orn[Oic^2,(α-Me)Phe^5,D-βNal^7,Ile^8]desArg^9BK] (Ac-[Orn]R[Oic]PG[αMeF]S[d2Nal]I-OH)
metabolised at 1 h, 200 µM [1]: 0%
Kb [2]: 2.29 nM
Peptide metabolism (%) Human platelets AmP [3]: 12 ± 2%
Kb [4]: 3.47 nM

CC[C@H](C)[C@H](NC(=O)[C@@H](Cc1ccc2ccccc2c1)NC(=O)[C@H](CO)NC(=O)[C@](C)(Cc1ccccc1)NC(=O)CNC(=O)[C@@H]1CCCN1C(=O)[C@@H]1C[C@@H]2CCCC[C@@H]2N1C(=O)[C@H](CCCNC(=N)N)NC(=O)[C@H](CCCCN)NC(C)=O)C(=O)O [Ac-Lys[Oic^2,(α-Me)Phe^5,D-βNal^7,Ile^8]desArg^9BK] (Ac-KR[Oic]PG[αMeF]S[d2Nal]I-OH)
metabolised at 1 h, 200 µM [1]: 0%
Kb [2]: 3.16 nM
Peptide metabolism (%) Human platelets AmP [3]: 12 ± 4%
Kb [4]: 3.72 nM
